Patent publication US20120083473A1, “TREATMENT OF CONDITIONS BY TOLL-LIKE RECEPTOR MODULATORS” (priority 2010, published 2012)

Test system: human monocytes (Mo)
Assay: Cross-tolerance toward TLR ligands in human monocytes (gene expression)
Assay type: cell-based
Procedure: To evaluate the effects of TMX on human cell activation, monocytes were isolated from buffy coats obtained from four different healthy donors. With respect to macrophage tolerance, cells were treated with Compound 2 (10 microM) up to 20 hours and then re-challenged with agonists/ligands of different TLRs (TLR2, TLR4, TLR5, TLR9, TLR7, etc. . . . ), including the TLR7 unconjugated ligand 1V209 (free pharmacophore) at a concentration of 10 microM.
Cell Culture and treatments. Monocytes (Mo) were obtained from buffycoats collected from healthy donors as previously described (Porta C et al, PNAS 2009). Cells were incubated in RPMI 1640 medium, containing 10% fetal bovine serum, 2 mM glutamine and 100 U/ml of penicillin-streptomycin. The concentrations for the different treatments were as follows: LPS (100 ng/ml) (Lipopolysaccharide from Salmonella Abortus Equi S-form, Alexis), CpG (1 microg/ml), Pam3CSK (2 microg/ml), Poly I:C (10 microg/ml), Loxorubine (100 microM), flagellin (100 ng/ml). To induce TMX tolerance, cells were incubated in the presence of TMX (10 microM) for 20 hrs, washed and maintained in RPMI medium for 2 hrs and then re-challenged with TMX (10 microM) for 4 hrs. To induce TMX-tolerization (T/M) cells were treated with TMX for 20 hrs, washed and then maintained in medium for additional 6 hours, without TMX re-challenge. To induce M1-activation cells were incubated in medium for 20 hrs, washed, left in medium for 2 hrs and finally stimulated with TMX (10 microM) for 4 hrs. Control cells (M/M) were cultured in medium for the entire period of the experiment. For gene expression analysis, total RNA was extracted from TMX treated and untreated cells with trizol (Invitrogen), according to the manufacturer's instructions. To analyze cytokines and chemokines production supernatants were collected 24 hrs after the second challenge with TMX.
Real-Time PCR. Total RNA was purified as previously described. Briefly, reverse transcription from 1 microgram of RNA was performed using a cDNA Archive kit (Applied Biosystem, NJ, USA). Real time PCR was performed using Power Syber Green PCR Master Mix (Applied Biosystem, NJ, USA) and detected by 7900HT Fast Real-Time System (Applied Biosystem, NJ, USA). Data were processed using the SDS2.2.2 software (Applied Biosystem, NJ, USA). Results were normalized to the expression of the housekeeping gene 8-actin and then expressed as folds of upregulation, with respect to the control cell population.

SMILES: COCCOc1nc(N)c2nc(O)n(Cc3ccc(C(=O)NCCOCCOCCOCCOCCOCCOCCn4cc(CCC(=O)O)nn4)cc3)c2n1 [Compound 2]
- TNFalpha, IL-1 beta, IL-6 and IL-12 gene expression in response to TLR ligands (Mo tolerized by 20 hours pre-treatment, excluding Pam): inability to up-regulate
- down-regulation of M1 marker IL-12p40 (TMX pretreatment, stimulation through TLRs other than TLR7): ~10 fold
- M2 gene induction, CCL17 in particular (TMX treatment, TLR agonist re-challenge): strongly enhanced
- Th2-recruiting chemokines genes (CCL17, CCL22) on TLR engagement (tolerized Mo, but not IL-10): trigger the expression
